# Source: PMC6661771, “Indole hybridized diazenyl derivatives: synthesis, antimicrobial activity, cytotoxicity evaluation and docking studies” (BMC Chemistry, 2019)
# Where two headings read alike, the source gives them in different places.
# Experiments:
# B. subtilis [1] = assay: Minimum bactericidal concentration (MBC); assay type: cell-based; conditions: Bacillus subtilis
# S. aureus [2] = assay: Minimum bactericidal concentration (MBC); assay type: cell-based; conditions: Staphylococcus aureus
# MDA MB 231 = assay: MTT cell proliferation assay; assay type: cell-based; conditions: MDA MB 231 breast cancer, 48 h of drug treatment
# Procedure: (§1) The cell lines used in study were initially procured from the National Centre for Cell Sciences (NCCS), Pune, India, and maintained in DMEM. The cell line was cultured in 25 cm^2 tissue culture flask with DMEM supplemented with 10% FBS, sodium bicarbonate, L-glutamine, and antibiotic solution containing: streptomycin (100 μg/ml), penicillin (100 U/ml). Cultured cell line was kept at 37 °C in a humidified 5% CO2 incubator (VWR, USA).
# (§2) The compounds found to have good antimicrobial potential were then screened for their cytotoxicity using MTT […]) assay. 1 × 10^4 cells/well were seeded in 100 µl DMEM/MEM, supplemented with 10% FBS in each well of 96-well microculture plates and incubated for 24 h at 37 °C in a CO2 incubator. After incubation, all the prepared/synthesized compounds were added to the cells at 10, 25, 50 and 100 µg concentrations for 48 h. After 48 h of drug treatment, 10 µl MTT (5 mg/ml) was added to each well and the plates were further incubated for 4 h. Then the supernatant from each well was carefully removed, formazan crystals were dissolved in 100 µl of DMSO and absorbance at 570 nm wavelength was recorded on an ELISA reader. The IC50 value was calculated using the linear regression equation i.e. Y = Mx + C. Here, Y = 50, M and C values were derived from the viability graph. The assay was performed in triplicate.
# K562 = assay: MTT cell proliferation assay; assay type: cell-based; conditions: Homo sapiens, K562 leukemia, 48 h of drug treatment
# Procedure: as §1, §2
# HCT 116 = assay: MTT cell proliferation assay; assay type: cell-based; conditions: Homo sapiens, HCT-116, 48 h, HCT 116 colon cancer, 48 h of drug treatment
# Procedure: as §1, §2
# A. niger [3] = assay: Minimum fungicidal concentration (MFC); assay type: cell-based; conditions: Aspergillus niger, read-out: MBC/MFC
# A. niger [4] = assay: MIC by tube dilution method; assay type: cell-based; conditions: Aspergillus niger, 168 h, 7 days at 25 °C, read-out: MIC
# S. aureus [5] = assay: MIC by tube dilution method; assay type: cell-based; conditions: Staphylococcus aureus, 24 h at 37 °C, read-out: MIC
# E. coli [6] = assay: Minimum bactericidal concentration (MBC); assay type: cell-based; conditions: Escherichia coli
# A. fumigatus [7] = assay: MIC by tube dilution method; assay type: cell-based; conditions: Aspergillus fumigatus, 168 h, 7 days at 25 °C, read-out: MIC
# K. pneumonia [8] = assay: MIC by tube dilution method; assay type: cell-based; conditions: 24 h at 37 °C
# S. enterica [9] = assay: MIC by tube dilution method; assay type: cell-based; conditions: Salmonella enterica, 24 h, 24 h at 37 °C, read-out: MIC
# B. subtilis [10] = assay: MIC by tube dilution method; assay type: cell-based; conditions: Bacillus subtilis, 24 h at 37 °C, read-out: MIC
# A. fumigatus [11] = assay: Minimum fungicidal concentration (MFC); assay type: cell-based; conditions: Aspergillus fumigatus, read-out: MBC/MFC
# S. enterica [12] = assay: Minimum bactericidal concentration (MBC); assay type: cell-based; conditions: Salmonella enterica; S. enterica; MBC; read-out: MBC/MFC
# Procedure: After MIC assessment, the indole derivatives (DS1–DS21), were additionally evaluated for MBC and MFC values. […] The 10–15 ml of nutrient agar and Sabouraud dextrose agar was added to the petri plates for bacterial and fungal samples respectively with gentle shaking of plates in order to mix the culture throughout the media. Allowed the media to solidify. The petri plates were then incubated for the predefined time and temperature as referenced already for bacterial and fungal cultures respectively. The plates were then investigated visually for the development of microbial growth. The MBC and MFC were stated as the minimum concentration of the compounds in aliquots showing no visual growth after incubation.
# HEK-293 = assay: MTT cell proliferation assay, normal cells; assay type: cell-based; conditions: Homo sapiens, HEK293, HEK-293 normal cells, 48 h of drug treatment
# Procedure: as §1, §2
# E. coli [13] = assay: MIC by tube dilution method; assay type: cell-based; conditions: 24 h at 37 °C
# K. pneumonia [14] = assay: Minimum bactericidal concentration (MBC); assay type: cell-based; conditions: Klebsiella pneumoniae
# [15] = Homo sapiens, MDA-MB-231, 48 h, read-out: IC50
# [16] = Klebsiella pneumoniae, 24 h, read-out: MIC
# [17] = Escherichia coli, 24 h, read-out: MIC
Structure (SMILES),MBC (B. subtilis [1]),MBC (S. aureus [2]),IC50 (MDA MB 231; [15]),IC50 (K562),IC50 (HCT 116),MFC (A. niger [3]),MIC (A. niger [4]),MIC (S. aureus [5]),MIC (A. fumigatus [7]),MIC (K. pneumonia [8]; [16]),MIC (S. enterica [9]),MIC (B. subtilis [10]),MFC (A. fumigatus [11]),MBC (S. enterica [12]),IC50 (HEK-293),MIC (E. coli [13]; [17]),melting point,IC50 (MDA MB 231),MBC (K. pneumonia [14]),other results
"C/C(=N/c1cc(Cl)ccc1Cl)c1ccc(/N=N\c2c[nH]c3ccc([N+](=O)[O-])cc23)cc1 [DS-10, (Z)-2,5-Dichloro-N-(1-(4-((Z)-(5-nitro-1H-indol-3-yl)diazenyl)phenyl)ethylidene)aniline]",125 µg/mL,125 µg/mL,130 ± 3.51 µg/mL,199 ± 3.13 µg/mL,204.9 ± 1.62 µg/mL,125 µg/mL,62.5 µg/mL,62.5 µg/mL,125 µg/mL,3.9 µg/mL,31.2 µg/mL,62.5 µg/mL,125 µg/mL,62.5 µg/mL,274 ± 4.58 µg/mL,1.95 µg/mL,210 to 215 °C,–,–,MBC (E. coli [6]): 31.2 µg/mL
"C/C(=N/c1ccc(C(=O)O)cc1)c1ccc(/N=N\c2c[nH]c3ccccc23)cc1 [DS-14, 4-((Z)-(1-(4-((Z)-(1H-Indol-3-yl)diazenyl)phenyl)ethylidene)amino)benzoic acid]",62.5 µg/mL,62.5 µg/mL,19 to 65 µg/mL,112 ± 3.64 µg/mL,–,125 µg/mL,62.5 µg/mL,62.5 µg/mL,31.2 µg/mL,1.95 to 3.9 µg/mL,1.95 to 3.9 µg/mL,31.2 µg/mL,125 µg/mL,7.81 µg/mL,244 ± 3.78 µg/mL,1.95 to 3.9 µg/mL,205 to 210 °C,19.10 ± 1.43 µg/mL,3.9 to 7.81 µg/mL,MIC (K. pneumonia [8]): 1.95 µg/mL; MIC (E. coli [13]): 3.90 µg/mL
"C/C(=N/CCNc1cccc2ccccc12)c1ccc(/N=N\c2c[nH]c3ccccc23)cc1 [DS-20, (Z)-N1-(1-(4-((Z)-(1H-Indol-3-yl)diazenyl)phenyl)ethylidene)-N2-(naphthalen-1-yl)ethane-1,2-diamine]",125 µg/mL,62.5 µg/mL,19 to 65 µg/mL,136 ± 4.74 µg/mL,–,125 µg/mL,62.5 µg/mL,125 µg/mL,62.5 µg/mL,3.9 µg/mL,15.6 µg/mL,125 µg/mL,125 µg/mL,31.2 µg/mL,233 ± 4.68 µg/mL,1.95 µg/mL,110 to 115 °C,20.95 ± 1.93 µg/mL,15.6 µg/mL,–
"C/C(=N/c1nc2ccccc2s1)c1ccc(/N=N\c2c[nH]c3ccc([N+](=O)[O-])cc23)cc1 [DS-21, (Z)-N-(1-(4-((Z)-(5-Nitro-1H-indol-3-yl)diazenyl)phenyl)ethylidene)benzo[d]thiazol-2-amine]",62.5 µg/mL,62.5 µg/mL,49.3 ± 4.15 µg/mL,158 ± 3.73 µg/mL,125 ± 1.33 µg/mL,125 µg/mL,125 µg/mL,62.5 µg/mL,125 µg/mL,3.9 µg/mL,31.2 µg/mL,31.2 µg/mL,125 µg/mL,31.2 µg/mL,142 ± 3.25 µg/mL,3.9 µg/mL,130 to 135 °C,–,–,–
